Columns and labels:
B-RAF G466V = target: T1, B-RAF G466V (Homo sapiens, UniProt P15056, G466V); assay: Target protein degradation, assay D: T-Rex 293 cells, HA-BRAF_G466V, 384 well format; format: cell-based; settings: T-Rex 293 HA-BRAF_G466V cells, 24 hours, Examples 83-269; for DC50: Assay D; for Dmax: T-REx-293, Assay D
T1 construct: expressed in transfected cells; host or cells: T-Rex 293 cells (Invitrogen #R71007)
How it was run: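 Degradation measured by high-content imaging of anti-HA immunofluorescence in fixed T-Rex 293 cells carrying inducible HA-BRAF G466V (1 ng/mL doxycycline), after 24 h PROTAC exposure at 37 °C over 300 nM–5 pM (1:3, 11 points, 0.5% DMSO). Outputs DC50 and Dmax as % of control; nuclei counts against DMSO wells gauge toxicity.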

B-RAF V600E = target: T2, B-RAF V600E (Homo sapiens, UniProt P15056, V600E); assay: Target protein degradation, assay C: T-Rex 293 cells, HA-BRAF_V600E, 384 well format; format: cell-based; settings: T-Rex 293 HA-BRAF_V600E cells, 24 hours, Examples 83-269; for DC50: Assay C; for Dmax: T-REx-293, Assay C
T2 construct: expressed in transfected cells; host or cells: T-Rex 293 cells (Invitrogen #R71007)
How it was run: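 After 24 h exposure to an 11-point 1:3 series (300 nM–5 pM, 0.5% DMSO), fixed T-Rex 293 cells carrying HA-BRAF V600E (induced with 1 ng/mL doxycycline) were stained anti-HA and imaged. DC50 and Dmax were derived from BRAF intensity relative to control, and cytotoxicity from nuclear counts.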

T1 sequence (P15056 whole entry G466V): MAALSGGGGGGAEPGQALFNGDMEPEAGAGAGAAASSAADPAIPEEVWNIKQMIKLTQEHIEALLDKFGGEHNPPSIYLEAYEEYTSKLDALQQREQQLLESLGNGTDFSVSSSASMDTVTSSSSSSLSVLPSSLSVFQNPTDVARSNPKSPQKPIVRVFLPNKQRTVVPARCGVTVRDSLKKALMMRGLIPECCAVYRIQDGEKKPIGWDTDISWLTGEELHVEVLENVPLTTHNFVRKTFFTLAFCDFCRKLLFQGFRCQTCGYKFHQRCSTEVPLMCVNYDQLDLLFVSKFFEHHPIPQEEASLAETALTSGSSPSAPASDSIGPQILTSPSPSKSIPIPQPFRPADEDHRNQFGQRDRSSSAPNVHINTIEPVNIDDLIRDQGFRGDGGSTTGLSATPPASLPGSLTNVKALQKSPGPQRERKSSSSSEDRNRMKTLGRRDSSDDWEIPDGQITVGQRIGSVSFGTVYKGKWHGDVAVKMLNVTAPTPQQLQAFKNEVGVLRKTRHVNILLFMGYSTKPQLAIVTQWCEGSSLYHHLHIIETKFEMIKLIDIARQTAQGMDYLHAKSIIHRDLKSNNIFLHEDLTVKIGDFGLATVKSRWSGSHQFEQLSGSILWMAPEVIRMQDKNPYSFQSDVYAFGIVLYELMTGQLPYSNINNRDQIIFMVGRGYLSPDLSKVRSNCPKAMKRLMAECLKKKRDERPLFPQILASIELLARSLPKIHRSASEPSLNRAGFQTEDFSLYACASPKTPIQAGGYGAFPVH
T2 sequence (P15056 whole entry V600E): as the sequence (P15056 whole entry G466V) above, with V466G, V600E counted along it

Structure (SMILES)	DC50 (B-RAF G466V)	DC50 (B-RAF V600E)	Dmax (B-RAF V600E)	Dmax (B-RAF G466V)
N#Cc1c(NS(=O)(=O)N2CC[C@@H](F)C2)ccc(F)c1Oc1ccc2ncn(-c3ccc(N4CCC(CN5CC6(C5)CN(c5cccc7c5C(=O)N(C5CCC(=O)NC5=O)C7=O)C6)CC4)nc3)c(=O)c2c1 (stereo partly drawn) [Example 173, (3R)-N-{2-cyano-3-[(3-{6-[4-({6-[2-(2,6-dioxopiperidin-3-yl)-1,3-dioxo-2,3-dihydro-1H-isoindol-4-yl]-2,6-diazaspiro[3.3]heptan-2-yl}methyl)piperidin-1-yl]pyridin-3-yl}-4-oxo-3,4-dihydroquinazolin-6-yl)oxy]-4-fluorophenyl}-3-fluoropyrrolidine-1-sulfonamide]	> 30 nM	50 to 500 nM	35 to 70%	
N#Cc1c(NS(=O)(=O)N2CC[C@@H](F)C2)ccc(F)c1Oc1ccc2ncn(-c3ccc(N4CC5(CN(CC6CCN(c7cccc8c7C(=O)N(C7CCC(=O)NC7=O)C8=O)CC6)C5)C4)nc3)c(=O)c2c1 (stereo partly drawn) [Example 174, (3R)-N-{2-cyano-3-[(3-{6-[6-({1-[2-(2,6-dioxopiperidin-3-yl)-1,3-dioxo-2,3-dihydro-1H-isoindol-4-yl]piperidin-4-yl}methyl)-2,6-diazaspiro[3.3]heptan-2-yl]pyridin-3-yl}-4-oxo-3,4-dihydroquinazolin-6-yl)oxy]-4-fluorophenyl}-3-fluoropyrrolidine-1-sulfonamide]	1 to 10 nM	50 to 500 nM	35 to 70%	≤ 35%
N#Cc1c(NS(=O)(=O)N2CC[C@@H](F)C2)ccc(F)c1Oc1ccc2ncn(-c3cnc(N4CCN(CCN5CCN(c6ccc(C7CCC(=O)NC7=O)cc6F)CC5)CC4)nc3)c(=O)c2c1 (stereo partly drawn) [Example 175, (3R)-N-{2-cyano-3-[(3-{2-[4-(2-{4-[4-(2,6-dioxopiperidin-3-yl)-2-fluorophenyl]piperazin-1-yl}ethyl)piperazin-1-yl]pyrimidin-5-yl}-4-oxo-3,4-dihydroquinazolin-6-yl)oxy]-4-fluorophenyl}-3-fluoropyrrolidine-1-sulfonamide]	1 to 10 nM	5 to 50 nM	35 to 70%	35 to 70%
N#Cc1c(NS(=O)(=O)N2CC[C@@H](F)C2)ccc(F)c1Oc1ccc2ncn(-c3ccc(N4CCN(CCN5CCC(c6ccc7c(c6)CN(C6CCC(=O)NC6=O)C7=O)CC5)CC4)cc3)c(=O)c2c1 (stereo partly drawn) [Example 176, (3R)—N-{2-cyano-3-[(3-{4-[4-(2-{4-[2-(2,6-dioxopiperidin-3-yl)-1-oxo-2,3-dihydro-1H-isoindol-5-yl]piperidin-1-yl}ethyl)piperazin-1-yl]phenyl}-4-oxo-3,4-dihydroquinazolin-6-yl)oxy]-4-fluorophenyl}-3-fluoropyrrolidine-1-sulfonamide]	1 to 10 nM	50 to 500 nM	35 to 70%	35 to 70%
O=C1CCC(N2Cc3cc(N4CCC(CN5CCN(c6ccc(-n7cnc8ccc(Oc9c(F)ccc(NS(=O)(=O)N%10CC[C@@H](F)C%10)c9F)cc8c7=O)cc6)CC5)CC4)ccc3C2=O)C(=O)N1 (stereo partly drawn) [Example 177, (3R)—N-{3-[(3-{4-[4-({1-[2-(2,6-dioxopiperidin-3-yl)-1-oxo-2,3-dihydro-1H-isoindol-5-yl]piperidin-4-yl}methyl)piperazin-1-yl]phenyl}-4-oxo-3,4-dihydroquinazolin-6-yl)oxy]-2,4-difluorophenyl}-3-fluoropyrrolidine-1-sulfonamide]	1 to 10 nM	5 to 50 nM	35 to 70%	35 to 70%
N#Cc1c(NS(=O)(=O)N2CC[C@@H](F)C2)ccc(F)c1Oc1ccc2ncn(-c3ccc(N4CCC(OC5CC6(C5)CN(c5ccc7c(c5)CN(C5CCC(=O)NC5=O)C7=O)C6)CC4)cc3)c(=O)c2c1 (stereo partly drawn) [Example 178, (3R)—N-{2-cyano-3-[(3-{4-[4-({2-[2-(2,6-dioxopiperidin-3-yl)-1-oxo-2,3-dihydro-1H-isoindol-5-yl]-2-azaspiro[3.3]heptan-6-yl}oxy)piperidin-1-yl]phenyl}-4-oxo-3,4-dihydroquinazolin-6-yl)oxy]-4-fluorophenyl}-3-fluoropyrrolidine-1-sulfonamide]	10 to 30 nM	50 to 500 nM	35 to 70%	35 to 70%
N#Cc1c(NS(=O)(=O)N2CC[C@@H](F)C2)ccc(F)c1Oc1ccc2ncn(-c3ccc(N4CCN(CC5CC6(C5)CN(c5ccc7c(c5)CN([C@H]5CCC(=O)NC5=O)C7=O)C6)CC4)cc3)c(=O)c2c1 [Example 179, (3R)—N-(2-cyano-3-{[3-(4-{4-[(2-{2-[(3S)-2,6-dioxopiperidin-3-yl]-1-oxo-2,3-dihydro-1H-isoindol-5-yl}-2-azaspiro[3.3]heptan-6-yl)methyl]piperazin-1-yl}phenyl)-4-oxo-3,4-dihydroquinazolin-6-yl]oxy}-4-fluorophenyl)-3-fluoropyrrolidine-1-sulfonamide]	1 to 10 nM	50 to 500 nM	≥ 70%	≥ 70%
N#Cc1c(NS(=O)(=O)N2CC[C@@H](F)C2)ccc(F)c1Oc1ccc2ncn(C3COC4(CCN(C(=O)CC5(O)CCN(c6ccc7c(c6)CN([C@H]6CCC(=O)NC6=O)C7=O)CC5)CC4)C3)c(=O)c2c1 (stereo partly drawn) [Example 180, (3R)—N-{2-cyano-3-[(3-{8-[2-(1-{2-[(3S)-2,6-dioxopiperidin-3-yl]-1-oxo-2,3-dihydro-1H-isoindol-5-yl}-4-hydroxypiperidin-4-yl)acetyl]-1-oxa-8-azaspiro[4.5]decan-3-yl}-4-oxo-3,4-dihydroquinazolin-6-yl)oxy]-4-fluorophenyl}-3-fluoropyrrolidine-1-sulfonamide]	> 30 nM	50 to 500 nM	35 to 70%	35 to 70%
CCN(C)S(=O)(=O)Nc1ccc(F)c(Oc2ccc3ncn(-c4ccc(N5CCN(CC6CN(c7ccc8c(c7)CN(C7CCC(=O)NC7=O)C8=O)C6)CC5)cc4)c(=O)c3c2)c1C#N (stereo not drawn) [Example 181, 2-[(3-{4-[4-({1-[2-(2,6-dioxopiperidin-3-yl)-1-oxo-2,3-dihydro-1H-isoindol-5-yl]azetidin-3-yl}methyl)piperazin-1-yl]phenyl}-4-oxo-3,4-dihydroquinazolin-6-yl)oxy]-6-{[ethyl(methyl)sulfamoyl]amino}-3-fluorobenzonitrile]	1 to 10 nM	50 to 500 nM	35 to 70%	≤ 35%
N#Cc1c(NS(=O)(=O)N2CC[C@@H](F)C2)ccc(F)c1Oc1ccc2ncn(-c3ccc(N4CCC(CN5CC6(CC(c7ccc8c(c7)CN(C7CCC(=O)NC7=O)C8=O)C6)C5)CC4)cc3)c(=O)c2c1 (stereo partly drawn) [Example 182, (3R)-N-{2-cyano-3-[(3-(4-[4-({6-[2-(2,6-dioxopiperidin-3-yl)-1-oxo-2,3-dihydro-1H-isoindol-5-yl]-2-azaspiro[3.3]heptan-2-yl}methyl)piperidin-1-yl]phenyl}-4-oxo-3,4-dihydroquinazolin-6-yl)oxy]-4-fluorophenyl}-3-fluoropyrrolidine-1-sulfonamide]	1 to 10 nM	50 to 500 nM	≤ 35%	35 to 70%
N#Cc1c(NS(=O)(=O)N2CC[C@@H](F)C2)ccc(F)c1Oc1ccc2ncn(-c3ccc(N4CCC(CN5CC(c6ccc([C@H]7CCC(=O)NC7=O)cc6F)C5)CC4)cc3)c(=O)c2c1 [Example 183, (3R)-N-(2-cyano-3-{[3-(4-{4-[(3-{4-[(3R)-2,6-dioxopiperidin-3-yl]-2-fluorophenyl}azetidin-1-yl)methyl]piperidin-1-yl}phenyl)-4-oxo-3,4-dihydroquinazolin-6-yl]oxy}-4-fluorophenyl)-3-fluoropyrrolidine-1-sulfonamide]	> 30 nM	50 to 500 nM	35 to 70%	
